Reference: patent US9381166B2 (Rigshospitalet, priority 2007, dated 2016)
Read-outs that look alike come from different tables or passages of the source.

Key:
[1] = Hemodynamic monitoring during adrenaline infusion without or with Seloken; format: in vivo, human
Source text: FIG. 11: The healthy subjects described in FIG. 10 were monitored haemodynamically at the same time points as described in FIG. 10. (a) heart rate (HR), (b) cardiac output (CO), (c) stroke volume (SV), (d) invasive blood pressure: mean arterial pressure, MAP) and (d) total peripheral resistance (TPR). […] The conc x treatment is an analysis of the total response/the total pattern, to check whether there is an interaction between concentration and treatment. […] ANOVA: Analysis of variance.
The hemodynamic changes comprising heart rate (HR), cardiac output (CO), stroke volume (SV), mean arterial pressure (MAP) and total peripheral resistance (TPR) were monitored during the protocol described in example 7 and FIG. 10.

[2] = tested on: fibrinolysis
Protocol: Arterial blood was collected in citrate before and after the last adrenaline dose (t=15) and again 30 minutes after end of infusion (t=45). The blood was analyzed with TEG (described in FIG. 3) after addition of tissue plasminogen activator (tPA) in a final concentration of 2.4 nM. (a) A representative example of TEG tracings with tPA induced fibrinolysis before and immediately after infusions of adrenaline. (b) Comparisons of the lysis AUC values t=0 vs. t=15 and t=0 vs. t=45, respectively by 1-way ANOVA, Friedman test and post hoc Dunn's Multiple Comparison Test, **p<0.01, ns: not significant.
When challenging the clot in vitro by induction of fibrinolyis, the Lysis AUC obtained by TEG (see FIG. 2) is a measure of the clot's resistance against fibrinolysis. Healthy subject received step-wise adrenaline infusion as described in FIG. 4, and blood was collected before (t=0), immediately after the infusion (t=15) and 30 minutes after discontinuation (t=45). Citrated whole blood was analysed precisely 30 minutes after blood collection: The fibrinolysis activator tPA (American Diagnostica) was added in a final concentration of 2.4 nM and TEG was performed as described in Example 1 and FIG. 3.

[3] = Plasma potassium concentration before and after adrenaline and Seloken; format: in vivo, human
Source text: Plasma K+ concentrations where followed before and after administration of both adrenaline and Seloken (beta blocker).

[4] = tested on: hemostatic system; experiment: TEG MA with combination of adrenergic receptor agonist and antagonists; format: in vivo, human
Protocol: FIG. 10: Seven healthy volunteers received 3 doses of adrenaline infusion lasting for 5 minutes each in the following step-wise increasing doses 3.5, 5.0 and 6.0 μg/kg/h. After resting 1 hour, the subjects received 0.15 μg/kg Seloken i.v. and rested again 30 minutes before repeating the step-wise adrenaline infusions. Blood samples were obtained from an arterial catheter at baseline (t=0.0), after each of the first adrenaline doses (t=5.0, t=10.1, t=15.0), at baseline after Seloken administration and rest (t=0.1) and after each of the subsequent adrenaline infusions (t=5.1, t=10.1, t=15.1). The blood was analyzed with TEG as described in FIG. 3 and Example 1. TEG MA values are presented as mean with 95% Cl and analyzed with a 2-way repeated measurements (RM) ANOVA with post hoc Bonferroni adjusted paired t-test of t=0.0 vs. t=5.0, t=10.1, t=15.0, respectively and t=0.1 vs. t=5.1, t=10.1, t=15.1, ***p<0.001.
Healthy volunteers rested 1 hour before receiving step-wise i.v. administration of adrenaline in the doses 3.5, 5.0 and 6.0 μg/kg/h, five minutes infusion at each dose, as described in FIG. 4. Hereafter the subjects rested for 1 hour and received an antagonist by i.v. infusion propanolol (primarily a β-2 antagonist, 0.15 mg/kg for 10 minutes), n=8, Urapidil (α-1 antagonist, 50 mg) or Seloken (β-1 antagonist 0.15 mg/kg for 10 minutes), n=7. […]

[5] = tested on: hemostatic system
Protocol: FIG. 7: TEG parameters (a) R, (b) Angle and (c) MA measured as described in FIG. 3 and example 1 on blood samples collected from patients infused with adrenaline prior to prostatectomy. Ten patients were anesthetized by propofol and haldid and infused with adrenaline i.v. in the doses 1, 2 and 3 μg/kg/h each for 5 minutes prior to skin incision. Hereafter the patients were prostatectomised according to local protocol. Blood samples were collected from an arterial catheter before adrenaline administration and immediately after each infusion dose (1, 2 and 3 μg/kg/h) and again 1 hour after discontinuation of adrenaline infusion. Statistics used: One-way ANOVA, Friedman Test, and Dunn's Multiple Comparison post hoc test of “before” compared to each of the following points 1, 2, 3 μg/kg/h and 1 hour after termination of adrenaline infusion, *p<0.05, **p<0.01,***p<0.001, ns: non significant.
Patients undergoing prostatectomy were anaesthetized by propofol and haldid. Prior to skin incision the patients received a step-wise i.v. infusion of adrenaline in the doses 1, 2 and 3 μg/kg/h each for 5 minutes. TEG analyses were performed as described in example 1, exactly 30 minutes after collection of arterial blood. Blood samples were obtained before and after each dose and 1 hour after discontinuation of adrenaline infusion.

[6] = i.v. step-wise 1, 2, 3 μg/kg/h or 3 μg/kg/h for 15 minutes before skin incision, vs 40 control patients
Protocol: The 2 intervention groups were compared to 40 controls also undergoing prostatectomy, whereof 20 underwent surgery prior to the interventions and the last 20 after the intervention. All values including median for each group is depicted. Comparisons between control group and each of the intervention groups was done separately by Mann Whitney test.
Blood loss of the 10 patients described in example 2 and 10 additional prostatectomy patients receiving a 15 minutes continuous adrenaline infusion of 3 μg/kg/h before skin incision were compared to 40 control patients, not receiving adrenaline, whereof 20 were operated before the interventions and the last 20 subsequently after the intervention (FIG. 8).

[7] = tested on: hemostatic system; experiment: Thrombelastography (TEG) of arterial whole blood after i.v. infusion in healthy volunteers; format: in vivo, human
Protocol: FIG. 3: Representative TEG profile of healthy volunteers before and after administration of adrenaline. Whole blood was drawn in 1/10 citrate from an arterial catheter. The citrated whole blood sample rested exactly 30 minutes at room temperature before TEG analysis on the Thrombelastograph Hemostasis Analyser, series 5000 (Haemoscope Corp., Skokie, Ill.): One ml of citrated whole blood was transferred to a kaolin vial (Haemoscope Corp.) and gently mixed by inversion 5 times. From the kaolin vial 340 μl was added to a plain TEG cup preloaded with 20 μl of 0.2 M CaCl2 and the analysis started immediately.
FIG. 4: TEG parameters (a) R, (b) Angle and (c) MA of 30 healthy volunteers after totally 15 minutes of i.v. administration of adrenaline. The subjects were catheterized and rested 60 minutes before administration of adrenaline was commenced. Adrenaline was step-wise infused intravenously for 5 minutes at each of the doses 3.5 μg/kg/h, 5.0 μg/kg/h and 6.0 μg/kg/h. Blood samples were collected from an arterial catheter at baseline (t=0) and immediately after each dose (t=5, t=10 and t=15).
FIG. 5: TEG MA measured before and after i.v. infusion of noradrenaline at 4.8 μg/kg/h for 15 minutes in 10 healthy volunteers, mean with 95% Cl. MA before and after noradrenaline was compared by a paired t-test with a p-value<0.05 considered statistically significant.
FIG. 6: TEG MA measured before (t=0) and after i.v. infusion of adrenaline at 4.8 μg/kg/h for 15 minutes (t=15) and 30 minutes after discontinuation of adrenaline administration (t=45). Data presented as mean with 95% Cl.
A whole blood sample for TEG analysis was drawn into a tube containing citrate (9 volumes of blood into 1 volume of 0.129 M citrate; […] system, BD Biosciences, Plymouth, UK) and rested for exactly 30 minutes before analysis: Coagulation was initiated by kaolin and re-calcified according to the instructions of the manufacturer: Citrated whole blood was added to a kaolin vial and mixed by gently inversion 5 times before transfer to the TEG cup containing calcium chloride (20 μl of 0.2 M CaCl2), which was preloaded into the TEG® cup as published previously [Johansson et al. 2008]. The hemostatic process was recorded by use of a TEG® coagulation analyzer (5000 series, Haemoscope Corporation). Adrenaline was mixed with 0.9% NaCl and infused intravenously.
FIG. 3 illustrates TEG profiles from a representative volunteer before and after receiving intravenous infusion of adrenaline 3 μg/kg/h for 15 minutes.

[8] = in response to adrenaline infusions
[9] = prostatectomy patients, step-wise i.v. 1, 2 and 3 μg/kg/h each for 5 minutes
[10] = healthy volunteers, i.v. adrenaline 3 μg/kg/h for 15 minutes (FIG. 3, FIG. 4)

In the case of CNC[C@H](O)c1ccc(O)c(O)c1 [adrenaline, (R)-4-(1-hydroxy-2-(methylamino)ethyl)benzene-1,2-diol], the “heart rate (HR)” value ([1]; adrenaline alone, 3.5, 5.0, 6.0 μg/kg/h) is reported as “increased HR significantly”, the “total peripheral resistance (TPR)” value ([1]; all adrenaline doses, with and without Seloken) is reported as “significant decrease” and the “mean arterial pressure (MAP)” value ([1]; any of the adrenaline doses used) is reported as “no effects”. The “cardiac output (CO)” value [1, 8] was “increase in CO”, the “stroke volume (SV)” value [1, 8] was “increase in SV” and the “effect on Lysis AUC after discontinuation” value ([2]; 30 minutes after discontinuation of infusion (t=45)) was “abrogated”. The “increase of Lysis AUC (resistance against fibrinolysis)” value ([2]; healthy subjects, step-wise 3.5, 5.0, 6.0 μg/kg/h, t=15 vs t=0, tPA 2.4 nM) was 154%, the “plasma potassium concentrations following administration” value ([3]; three healthy volunteers) was “fell” and the “TEG MA after adrenaline administration” value ([4]; healthy volunteers, step-wise 3.5, 5.0 and 6.0 μg/kg/h (FIG. 10)) was “increases”. For the same molecule, the “pro-hemostatic effect versus dose” value ([5]; 1, 2 and 3 microgram/kg/hour, compared to baseline (FIG. 7)) was “dose dependent increase”, the “pro-hemostatic effect on clot strength (MA) after discontinuation” value ([5]; 60 min after discontinuation of infusion, prostatectomy patients) was “abated” and the “time until MA returns to baseline after discontinuation of infusion” value ([5]; prostatectomy patients (FIG. 7c)) was at most 60 min. The “TEG Angle (propagation and thrombin generation)” value [5, 9] was “increased”, the “TEG MA (mechanical strength of the clot)” value [5, 9] was “increased” and the “TEG R (initiation of the coagulation process)” value [5, 9] was “decreased”. The perioperative blood loss [6] was “reduced perioperative blood loss significantly”, the “time until MA returns to baseline after discontinuation of infusion” value ([7]; healthy volunteers, 4.8 μg/kg/h for 15 minutes (FIG. 6)) was at most 30 min and the MA response ([7]; healthy volunteers, adrenaline infusion 3.5, 5.0, 6.0 μg/kg/h (FIG. 4c)) was “dose-dependent increase”. The “TEG Angle (thrombin generation)” value [7, 10] was “increased”, the “TEG MA (mechanical clot strength)” value [7, 10] was “increased” and the “TEG R (initiation of the coagulation process)” value [7, 10] was “shorter”.

In the case of NC[C@H](O)c1ccc(O)c(O)c1 [noradrenaline, 4-(2-Amino-1-hydroxyethyl)benzene-1,2-diol], the “pro-hemostatic effect (TEG MA)” value ([7]; 10 healthy subjects, i.v. 4.8 μg/kg/h for 15 minutes (FIG. 5)) is reported as “pro-hemostatic effect”.

With COCCc1ccc(OCC(O)CNC(C)C)cc1 (stereo not shown) [Seloken, Metoprolol] the “adrenaline-induced increase in SV” value ([1]; after Seloken administration) was “not significantly lowered”, the “adrenaline-induced decrease in TPR” value ([1]; after Seloken treatment) was “significantly lower decrease” and the “adrenaline-induced increase in CO” value ([1]; when Seloken was administered, all adrenaline concentrations) was “significantly lower”. For the same molecule, the “adrenaline-induced increase in HR” value ([1]; when Seloken was infused before adrenaline) was “practically abrogated/normalized”, the “drop in plasma potassium concentration after adrenaline” value ([3]; Seloken administered prior to adrenaline) was “less” and the “effect of antagonist on the MA increase after adrenaline” value ([4]; antagonist i.v. 30 minutes before repeated step-wise adrenaline 3.5, 5.0, 6.0 μg/kg/h, Seloken 0.15 mg/kg for 10 minutes) was “not affected”.
